# Results as given in patent publication US20240188566A1, “Biocidal Composition and Method” (ARXADA, LLC, priority 2021, published 2024).
# How the values were obtained:
# [1] = test system: bacteria, fungi, and yeast; conditions: background statement; cited from earlier work
# [2] = test system: Pseudomonas aeruginosa, Escherichia coli, Enterobacter cloacae, Acinetobacter calcoaceticus; assay: In-can challenge test, modified ASTM D2574-97 (Table 1); assay type: cell-based
# Procedure: (§1) Various formulations were made in accordance with the present disclosure and tested for performance. In one challenge test, the efficacy of dicyandiamide as an adjuvant for BIT was evaluated using modified ASTM D2574-97 “Standard Test Method for Resistance of Emulsion Paints in the Container to Attack by Microorganisms” with higher inoculation volumes and frequency. A standard consortium of four (4) bacterial populations: Pseudomonas aeruginosa, Escherichia coli, Enterobacter cloacae, Acinetobacter calcoaceticus was used to inoculate three (3) different samples at ten percent (10%), five percent (5%), or two and a half percent (2.5%) of the sample size. At twenty-four (24) hours and seventy-two (72) hours after each inoculation, a portion of each sample was streaked on tryptic soy agar. A dilution plate count was performed at the last seventy-two (72) hour time point.
# (§2) Example data provided in Tables 1, 2 and 3 should be understood as indicating the degree of microbial growth observed for a given data point unless otherwise indicated. In particular, each plate is ranked from 0 through 5c (i.e., one of 0, 1, 2, 3, 4, 5, or 5c) according to the degree of observed microbial growth, where: a “0” ranking indicates no growth; a “1” ranking indicates one (1) through five (5) observed colony forming unit (cfu), i.e., the plate was very lightly contaminated; a “2” ranking indicates six (6) through fifteen (15) cfu, i.e., the plate was lightly contaminated; a “3” ranking indicates sixteen (16) through thirty (30) cfu, i.e., the plate was moderately contaminated; a “4” ranking indicates thirty-one (31) through forty-five (45) cfu, i.e., the plate was heavily contaminated; a “5” ranking indicates greater than (45) cfu, i.e., the plate was severely contaminated; and a “5c” ranking indicates confluent growth, i.e., the plate was very severely contaminated. Thus, for instance, Table 1, Challenge 1 at 24 h for BIT 50 ppm has a value of 5 indicating greater than forty-five (45) cfu were observed. As another example for illustration, Table 1, Challenge 1 at 24 h for dicyandiamide 5,000 ppm+BIT 50 ppm has a value of 1 indicating one (1) through five (5) cfu was observed.
# [3] = test system: Pseudomonas aeruginosa, Escherichia coli, Enterobacter cloacae, Acinetobacter calcoaceticus; assay: Repeat in-can challenge test, same conditions (Table 2); assay type: cell-based
# Procedure: as §1, §2
# [4] = neutral pH; cited from earlier work
# [5] = BIT 50 ppm, Challenge 1 (10%), 24 h
# [6] = BIT 50 ppm, Challenge 1 (10%), 72 h
# [7] = BIT 50 ppm, Challenge 2 (5%), 72 h
# [8] = BIT 50 ppm, Challenge 3 (2.5%), 24 h
# [9] = BIT 50 ppm, Challenge 3 (2.5%), 72 h
# [10] = BIT 100 ppm, Challenge 1 (10%), 24 h
# [11] = BIT 100 ppm, Challenge 1 (10%), 72 h
# [12] = BIT 100 ppm, Challenge 2 (5%), 72 h
# [13] = BIT 100 ppm, Challenge 3 (2.5%), 24 h
# [14] = BIT 100 ppm, Challenge 3 (2.5%), 72 h
molecule,measurement,setting,value
"O=c1[nH]sc2ccccc12 [BIT, 1,2-benzisothiazolin-3-one]",amount required for a reliable and quick biocidal activity,[1],≤ 500 ppm
same,degree of microbial growth (plate ranking),[2]; [5],"5 (a “5” ranking indicates greater than (45) cfu, i.e., the plate was severely contaminated)"
same,degree of microbial growth (plate ranking),[2]; [6],"2 (a “2” ranking indicates six (6) through fifteen (15) cfu, i.e., the plate was lightly contaminated)"
same,degree of microbial growth (plate ranking),[2]; [7],"5 (a “5” ranking indicates greater than (45) cfu, i.e., the plate was severely contaminated)"
same,degree of microbial growth (plate ranking),[2]; [8],5c
same,dilution plate count,[2]; [9],7.8 × 10^6
same,degree of microbial growth (plate ranking),[2]; [10],"5 (a “5” ranking indicates greater than (45) cfu, i.e., the plate was severely contaminated)"
same,degree of microbial growth (plate ranking),[2]; [11],0
same,degree of microbial growth (plate ranking),[2]; [12],0
same,degree of microbial growth (plate ranking),[2]; [13],"5 (a “5” ranking indicates greater than (45) cfu, i.e., the plate was severely contaminated)"
same,dilution plate count,[2]; [14],5.0 × 10^1
same,degree of microbial growth (plate ranking),"[3]; BIT 35 ppm, Challenge 1 (10%), 24 h",5c
same,degree of microbial growth (plate ranking),"[3]; BIT 35 ppm, Challenge 1 (10%), 72 h",5c
same,degree of microbial growth (plate ranking),"[3]; BIT 35 ppm, Challenge 2 (5%), 72 h",5c
same,degree of microbial growth (plate ranking),"[3]; BIT 35 ppm, Challenge 3 (2.5%), 24 h",5c
same,dilution plate count,"[3]; BIT 35 ppm, Challenge 3 (2.5%), 72 h",3.0 × 10^6
same,degree of microbial growth (plate ranking),[3]; [5],5c
same,degree of microbial growth (plate ranking),[3]; [6],5c
same,degree of microbial growth (plate ranking),[3]; [7],5c
same,degree of microbial growth (plate ranking),[3]; [8],5c
same,dilution plate count,[3]; [9],6.6 × 10^6
same,degree of microbial growth (plate ranking),"[3]; BIT 65 ppm, Challenge 1 (10%), 24 h",5c
same,degree of microbial growth (plate ranking),"[3]; BIT 65 ppm, Challenge 1 (10%), 72 h","3 (a “3” ranking indicates sixteen (16) through thirty (30) cfu, i.e., the plate was moderately contaminated)"
same,degree of microbial growth (plate ranking),"[3]; BIT 65 ppm, Challenge 2 (5%), 72 h",5c
same,degree of microbial growth (plate ranking),"[3]; BIT 65 ppm, Challenge 3 (2.5%), 24 h",5c
same,dilution plate count,"[3]; BIT 65 ppm, Challenge 3 (2.5%), 72 h",1.0 × 10^6
same,degree of microbial growth (plate ranking),"[3]; BIT 75 ppm, Challenge 1 (10%), 24 h",5c
same,degree of microbial growth (plate ranking),"[3]; BIT 75 ppm, Challenge 1 (10%), 72 h",0
same,degree of microbial growth (plate ranking),"[3]; BIT 75 ppm, Challenge 2 (5%), 72 h","5 (a “5” ranking indicates greater than (45) cfu, i.e., the plate was severely contaminated)"
same,degree of microbial growth (plate ranking),"[3]; BIT 75 ppm, Challenge 3 (2.5%), 24 h",5c
same,dilution plate count,"[3]; BIT 75 ppm, Challenge 3 (2.5%), 72 h",2.8 × 10^5
same,degree of microbial growth (plate ranking),[3]; [10],5c
same,degree of microbial growth (plate ranking),[3]; [11],0
same,degree of microbial growth (plate ranking),[3]; [12],"5 (a “5” ranking indicates greater than (45) cfu, i.e., the plate was severely contaminated)"
same,degree of microbial growth (plate ranking),[3]; [13],5c
same,dilution plate count,[3]; [14],1.8 × 10^7
Zinc pyrithione [ZPT],solubility in water,[4],8 ppm
